According to publication PMC3573263 (Chemical biology & drug design, 2013):

Key:
[1] = target: wild-type YopH (Yersinia pestis, UniProt O68720); experiment: biochemical; assay type: binding
[2] = target: T1, YopH (Yersinia pestis, UniProt O68720); conditions: cited from earlier work
[3] = target: T1, YopH
[4] = target: YopH N-terminus (Yersinia pestis) (UniProt P08538); experiment: NMR; conditions: cited from earlier work
[5] = target: N-terminus of YopH; conditions: read-out: equilibrium dissociation constant; cited from earlier work

Chain of wild-type YopH (O68720 164-468 limits assumed): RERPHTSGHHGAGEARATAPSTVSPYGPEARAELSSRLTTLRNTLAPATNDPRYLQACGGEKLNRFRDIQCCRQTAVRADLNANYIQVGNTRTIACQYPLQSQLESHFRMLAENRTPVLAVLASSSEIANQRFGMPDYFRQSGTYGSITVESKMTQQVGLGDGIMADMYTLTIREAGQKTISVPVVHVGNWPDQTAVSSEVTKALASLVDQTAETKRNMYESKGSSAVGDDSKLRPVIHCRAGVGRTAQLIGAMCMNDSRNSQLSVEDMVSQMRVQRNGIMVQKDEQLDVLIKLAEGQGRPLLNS
T1 sequence (O68720 164-468 limits assumed): as above
Chain of YopH N-terminus (Yersinia pestis) (P08538 1-129): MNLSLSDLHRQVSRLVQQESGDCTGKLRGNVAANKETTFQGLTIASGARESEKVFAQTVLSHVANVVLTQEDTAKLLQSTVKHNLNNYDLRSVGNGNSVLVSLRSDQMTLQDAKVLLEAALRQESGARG

Molecule	koff [1]	kon [1]	ΔG [1]	also measured
O=C(O)c1ccc(/C=N/OCc2ccc(-c3cccc(C(F)(F)P(=O)(O)O)c3)cc2)o1 [compound 3, 5-((1E)-(((4-(3-(difluoro(phosphono)methyl)phenyl)phenyl)methoxy)imino)methyl)furan-2-carboxylic acid]	0.945 (0.13)	44.5 M⁻¹ s⁻¹	–	Kd [1]: 239 µM
N[C@@H](Cc1ccc(OP(=O)(O)O)cc1)C(=O)O [L-phosphotyrosine, reference compound]	0.679	0.278 M⁻¹ s⁻¹	-2.2 kcal/mol	Kd [1]: 24400 µM
O=[N+]([O-])c1ccc(OP(=O)(O)O)cc1 [pNPP, para-nitrophenylphosphate]	–	–	–	catalytic activity of YopH toward substrate, lower than the pTyr-containing peptide [2]: 1300 fold
(difluoro((3-(4-((((E)-furan-3-ylmethylidene)amino)oxy)methyl)phenyl)phenyl))methyl) phosphonic acid [compound 1]	1.95 (0.95)	73.4 (34.8) 1/Ms	−4.88 (0.43) kcal/ mol	inhibition of PTPase activity on microarrayed pTyr-EGFR peptide (in words) [3]: dose-response relationship
(difluoro((3-(4-((((E)-furan-2-ylmethylidene)amino)oxy)methyl)phenyl)phenyl))methyl) phosphonic acid [compound 2]	2.15 (0.89)	–	−5.28 (0.20) kcal/ mol	–
EGFR phosphopeptide (from UniProt P00533)	–	–	–	Kd [4]: 10 µM
DADEpYL [hexapeptide]	–	–	–	Kd [5]: 10 µM
DADE-pYLIPQQG	–	–	–	rate constant for dephosphorylation [2]: 2.23e+07 M⁻¹ s⁻¹
